Assay results published in patent publication US11137686B2, “Material for forming underlayer film for lithography, composition for forming underlayer film for lithography, underlayer film for lithography and production method thereof, and resist pattern forming method” (Mitsubishi Gas Chemical Company, Inc., priority 2015, dated 2021).

Assays:
[1] = Thermal weight loss temperature (thermogravimetric measurement, TG); type: physicochemical; settings: heated to 500° C. at 10° C./min, nitrogen stream
Procedure: (Thermal Weight Loss Temperature)
An “EXSTAR 6000 […] apparatus” manufactured by SII NanoTechnology Inc. was used, and about 5 mg of a sample was placed in an unsealed aluminum container and heated to 500° C. at a rate of temperature rise of 10° C./min in a nitrogen gas (30 mL/min) stream. The 10% thermal weight loss temperature was here measured.

[2] = Solubility in PGME and PGMEA at 23° C.; type: physicochemical; settings: for solubility in PGME: 1-methoxy-2-propanol (PGME); for solubility in PGMEA: propylene glycol monomethyl ether acetate (PGMEA)
Procedure: The amount of each compound dissolved in 1-methoxy-2-propanol (PGME) and propylene glycol monomethyl ether acetate (PGMEA) was measured at 23° C., and the results were evaluated with respect to the solubility according to the following criteria.
Evaluation A: 20% by mass or more
Evaluation B: 10% by mass or more and less than 20% by mass
Evaluation C: less than 10% by mass

Compound | 10% thermal weight loss temperature [1] | solubility in PGME [2] | solubility in PGME, Evaluation [2] | solubility in PGMEA, Evaluation [2] | solubility in PGMEA [2]
COc1cc(C2c3c(ccc4ccc(O)cc34)Oc3ccc4ccc(O)cc4c32)cc(I)c1O [B-3] | ≥ 400 °C | ≥ 20 % by mass | A (Evaluation A: 20% by mass or more) | A (Evaluation A: 20% by mass or more) | ≥ 20 % by mass
Oc1ccc2c3c(ccc2c1)Oc1ccc2cc(O)ccc2c1C3c1ccc(I)cc1 [A-2] | ≥ 400 °C | ≥ 20 % by mass | A (Evaluation A: 20% by mass or more) | B (Evaluation B: 10% by mass or more and less than 20% by mass) | –
Oc1ccc2ccc3c(c2c1)C(c1ccc(I)o1)c1c(ccc2ccc(O)cc12)O3 [B-4] | ≥ 400 °C | ≥ 20 % by mass | A (Evaluation A: 20% by mass or more) | A (Evaluation A: 20% by mass or more) | ≥ 20 % by mass
COc1cc(C2c3c(ccc4cc(O)ccc34)Oc3ccc4cc(O)ccc4c32)cc(I)c1O [A-3] | ≥ 400 °C | ≥ 20 % by mass | A (Evaluation A: 20% by mass or more) | A (Evaluation A: 20% by mass or more) | ≥ 20 % by mass
Oc1ccc2c3c(ccc2c1)Oc1ccc2cc(O)ccc2c1C3c1ccc(I)o1 [A-4] | ≥ 400 °C | ≥ 20 % by mass | A (Evaluation A: 20% by mass or more) | A (Evaluation A: 20% by mass or more) | ≥ 20 % by mass
Oc1ccc2ccc3c(c2c1)C(c1ccc(I)cc1)c1c(ccc2ccc(O)cc12)O3 [B-2] | ≥ 400 °C | ≥ 20 % by mass | A (Evaluation A: 20% by mass or more) | A (Evaluation A: 20% by mass or more) | ≥ 20 % by mass
